Measured values taken from patent publication US12336982B2 (RODEO THERAPEUTICS CORPORATION, priority 2018, dated 2025).

biological target: T1, recombinant 15-PGDH (Homo sapiens, UniProt P15428); type: biochemical; settings: recombinant human 15-PGDH, in vitro; read-out: PDGH Assay-IC50
T1 sequence (P15428 1-266): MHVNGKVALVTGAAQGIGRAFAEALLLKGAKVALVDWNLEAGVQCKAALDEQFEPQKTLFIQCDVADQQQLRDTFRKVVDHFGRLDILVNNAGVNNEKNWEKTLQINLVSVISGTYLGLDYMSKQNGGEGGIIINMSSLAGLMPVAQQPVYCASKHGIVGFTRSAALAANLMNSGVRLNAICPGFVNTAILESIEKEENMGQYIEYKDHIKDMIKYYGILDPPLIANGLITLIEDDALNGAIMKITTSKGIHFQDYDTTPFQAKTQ
Excerpt: The Recombinant 15-PGDH is human unless otherwise specified.

| SMILES | IC50 |
| --- | --- |
| Nc1c([S@@+]([O-])C2CCC2)sc2nc(-c3cnc(NCCO)nc3)cc(-c3ncccc3F)c12 [Example 182] | ≥ 10 nM |
| COCC[S+]([O-])c1sc2nc(-c3ccc4[nH]nnc4c3)cc(-c3ccnn3C)c2c1N (centres unmarked) [Example 214] | < 2.5 nM |
| COCCC[S@@+]([O-])c1sc2nc(-c3cncnc3)cc(-c3ccncn3)c2c1N [Example 238] | < 2.5 nM |
| Cn1nccc1-c1cc(-c2ccc3c(=O)[nH]ccc3c2)nc2sc([S+]([O-])C3CCC3)c(N)c12 (centres unmarked) [Example 316] | 2.5 to 10 nM |
| COCC[S+]([O-])c1sc2nc(-c3cccnc3)nc(C3CC3)c2c1N (centres unmarked) [Example 190] | < 2.5 nM |
| Nc1ncc(-c2cc(C(F)(F)F)c3c(N)c([S+]([O-])C4CCC4)sc3n2)cn1 (centres unmarked) [Example 429] | 2.5 to 10 nM |
| COCC[S+]([O-])c1sc2nc(-c3ccc(N)nc3)cc(C(F)(F)F)c2c1N (centres unmarked) [Example 135] | 2.5 to 10 nM |
| COCCC[S@@+]([O-])c1sc2nc(-c3cnc4nn(C)cc4c3)cc(C3CCC3)c2c1N [Example 261] | < 2.5 nM |
| Nc1c([S+]([O-])C2CCC2)sc2nc(-c3cncnc3)cc(-c3ncccc3F)c12 (centres unmarked) [Example 121] | < 2.5 nM |
| COCCC[S@@+]([O-])c1sc2nc(-c3cncnc3)cc(C(F)(F)F)c2c1N [Example 200] | < 2.5 nM |
| Nc1c([S+]([O-])C2CCC2)sc2nc(-c3cnn(CCO)c3)cc(-c3ccccc3)c12 (centres unmarked) [Example 272] | < 2.5 nM |
| COCC[S@@+]([O-])c1sc2nc(-c3cnc4c(c3)ncn4C)cc(C3CCC3)c2c1N [Example 374] | < 2.5 nM |
| COCCC[S@+]([O-])c1sc2nc(-c3cncnc3)cc(-c3ncccn3)c2c1N [Example 112] | ≥ 10 nM |
| Nc1c([S+]([O-])C2CCC2)sc2nc(-c3cnc(NCCO)nc3)cc(-c3ccc(C(F)(F)F)cc3)c12 (centres unmarked) [Example 160] | 2.5 to 10 nM |
| COCC[S+]([O-])c1sc2nc(-c3cnn(C)c(=O)c3)cc(C3CCC3)c2c1N (centres unmarked) [Example 396] | < 2.5 nM |
| Nc1c([S+]([O-])C2CCC2)sc2nc(-c3cnc4ncnn4c3)cc(-c3ccccc3)c12 (centres unmarked) [Example 401] | < 2.5 nM |
| Nc1c([S+]([O-])C2CCC2)sc2nc(-c3cnc(NCCO)nc3)cc(-c3ccccn3)c12 (centres unmarked) [Example 82] | < 2.5 nM |
| COCC[S@+]([O-])c1sc2nc(-c3cnc4nn(C)nc4c3)cc(-c3ccnn3C)c2c1N [Example 382] | ≥ 10 nM |
| COCC[S@+]([O-])c1sc2nc(-c3cnc4nncn4c3)cc(-c3ccccc3)c2c1N [Example 360] | ≥ 10 nM |
| Nc1c([S+]([O-])C2CCC2)sc2nc(-c3cncnc3)cc(C(F)(F)F)c12 (centres unmarked) [Example 204] | < 2.5 nM |
| COCCNc1ncc(-c2cc(-c3ncccn3)c3c(N)c([S+]([O-])C4CCC4)sc3n2)cn1 (centres unmarked) [Example 232] | < 2.5 nM |
| COCC[S+]([O-])c1sc2nc(-c3cnc(N)nc3)cc(-c3ccccc3)c2c1N (centres unmarked) [Example 73] | < 2.5 nM |
| COCC[S@@+]([O-])c1sc2nc(-c3cncnc3)cc(-c3ccccc3)c2c1N [Example 85] | < 2.5 nM |
| Nc1c([S+]([O-])C2CCC2)sc2nc(-c3ccc(NCCO)nc3)cc(-c3ccccn3)c12 (centres unmarked) [Example 83] | < 2.5 nM |
| COCC[S@@+]([O-])c1sc2nc(-c3cnc4nncn4c3)cc(-c3ccccc3)c2c1N [Example 359] | < 2.5 nM |

| SMILES | IC50 |
| --- | --- |
| Nc1c([S@+]([O-])C2CCC2)sc2nc(-c3cnc(NCCO)nc3)cc(-c3ncccc3F)c12 [Example 181] | < 2.5 nM |
| COCC[S@+]([O-])c1sc2nc(-c3cncnc3)cc(C(F)(F)F)c2c1N [Example 199] | ≥ 10 nM |
| Cc1cn(C)nc1-c1cc(-c2cnc(N)nc2)nc2sc([S+]([O-])C3CCC3)c(N)c12 (centres unmarked) [Example 357] | < 2.5 nM |
| COCC[S@@+]([O-])c1sc2nc(-c3cncnc3)cc(C3CC3)c2c1N [Example 148] | < 2.5 nM |
| COCCC[S+]([O-])c1sc2nc(-c3ccc(N)nc3)cc(C(F)(F)F)c2c1N (centres unmarked) [Example 134] | 2.5 to 10 nM |
| COCCC[S+]([O-])c1sc2nc(-c3cncnc3)cc(C3CC3)c2c1N (centres unmarked) [Example 106] | < 2.5 nM |
| COCC[S@+]([O-])c1sc2nc(-c3cnc4c(c3)ncn4C)cc(C3CCC3)c2c1N [Example 375] | ≥ 10 nM |
| COCC[S@@+]([O-])c1sc2nc(-c3cnc(N)nc3)cc(C3CC3)c2c1N [Example 150] | < 2.5 nM |
| Nc1c([S@+]([O-])C2CCC2)sc2nc(-c3cnc(NCCO)nc3)cc(-c3ccccn3)c12 [Example 94] | < 2.5 nM |
| COCC[S+]([O-])c1sc2nc(-c3cncnc3)cc(C3CCC3)c2c1N (centres unmarked) [Example 251] | < 2.5 nM |
| Nc1c([S+]([O-])C2CCC2)sc2nc(-c3ccc(=O)[nH]c3)cc(-c3ccc(C4COC4)cc3)c12 (centres unmarked) [Example 174] | 2.5 to 10 nM |
| COCCC[S+]([O-])c1sc2nc(-c3ccnnc3)cc(-c3ccccc3)c2c1N (centres unmarked) [Example 209] | < 2.5 nM |
| COCCC[S+]([O-])c1sc2nc(-c3cncnc3)cc(-c3ccnc(C)c3)c2c1N (centres unmarked) [Example 119] | < 2.5 nM |
| Nc1ncc(-c2cc(-c3ccc(C4COC4)cc3)c3c(N)c([S+]([O-])C4CCC4)sc3n2)cn1 (centres unmarked) [Example 143] | < 2.5 nM |
| COCCC[S@+]([O-])c1sc2nc(-c3cnc4nn(C)cc4c3)cc(C3CCC3)c2c1N [Example 262] | ≥ 10 nM |
| Nc1c([S+]([O-])C2CCC2)sc2nc(-c3cnc(NCCO)nc3)cc(C3CC3)c12 (centres unmarked) [Example 145] | < 2.5 nM |
| COCCC[S+]([O-])c1sc2nc(-c3cnc(NCCO)nc3)cc(-c3ccc(F)cc3)c2c1N (centres unmarked) [Example 71] | 2.5 to 10 nM |
| Cn1cnc(-c2cc(-c3cncnc3)nc3sc([S@@+]([O-])C4CCC4)c(N)c23)c1 [Example 65] | ≥ 10 nM |
| Nc1c([S+]([O-])C2CCC2)sc2nc(-c3cnc(NCC(CO)CO)nc3)cc(-c3ccccc3)c12 (centres unmarked) [Example 193] | < 2.5 nM |
| COC(=O)Nc1ccc(-c2cc(-c3cccnc3)c3c(N)c([S+]([O-])C4CCC4)sc3n2)cn1 (centres unmarked) [Example 100] | < 2.5 nM |
| COCC[S@+]([O-])c1sc2nc(-c3cncnc3)cc(-c3ncccn3)c2c1N [Example 231] | ≥ 10 nM |
| Cn1cc2cc(-c3cc(-c4ccnn4C)c4c(N)c([S+]([O-])C5CCC5)sc4n3)cnc2n1 (centres unmarked) [Example 333] | < 2.5 nM |
| Nc1c([S+]([O-])C2CCC2)sc2nc(-c3cccnc3)cc(C(F)(F)F)c12 (centres unmarked) [Example 58] | < 2.5 nM |
| COCC[S@@+]([O-])c1sc2nc(-c3cnc4nn(C)cc4c3)cc(C(F)(F)F)c2c1N [Example 418] | < 2.5 nM |
| Cn1ccc(-c2cc(-c3cnc4nn(C)cc4c3)nc3sc([S+]([O-])C4CCC4)c(N)c23)n1 (centres unmarked) [Example 341] | < 2.5 nM |

| SMILES | IC50 |
| --- | --- |
| COCC[S@@+]([O-])c1sc2nc(-c3cnc4nn(C)nc4c3)cc(-c3ccnn3C)c2c1N [Example 381] | < 2.5 nM |
| COCC[S+]([O-])c1sc2nc(-c3cnc4nn(CCO)cc4c3)cc(C3CCC3)c2c1N (centres unmarked) [Example 266] | < 2.5 nM |
| COCCC[S+]([O-])c1sc2nc(-c3cnc(N4CCOCC4)nc3)cc(C(F)(F)F)c2c1N (centres unmarked) [Example 425] | 2.5 to 10 nM |
| Cn1cc(-c2cc(-c3cnc4nn(C)cc4c3)nc3sc([S+]([O-])C4CCC4)c(N)c23)cn1 (centres unmarked) [Example 279] | 2.5 to 10 nM |
| Nc1c([S+]([O-])C2CCC2)sc2nc(-c3cncnc3)cc(-c3cccnc3)c12 (centres unmarked) [Example 84] | < 2.5 nM |
| COCC[S@+]([O-])c1sc2nc(-c3cncnc3)cc(C3CC3)c2c1N [Example 149] | ≥ 10 nM |
| CN(CCO)c1ncc(-c2cc(-c3ccccc3)c3c(N)c([S@+]([O-])C4CCC4)sc3n2)cn1 [Example 179] | < 2.5 nM |
| COCC[S+]([O-])c1sc2nc(-c3cnc4c(c3)CNC4=O)cc(-c3ccccc3)c2c1N (centres unmarked) [Example 241] | < 2.5 nM |
| Cn1cc(-c2cc(-c3ccc(OCCO)cc3)nc3sc([S+]([O-])C4CCC4)c(N)c23)cn1 (centres unmarked) [Example 413] | < 2.5 nM |
| CN(C)CCNc1ncc(-c2cc(-c3ccccc3)c3c(N)c([S+]([O-])C4CCC4)sc3n2)cn1 (centres unmarked) [Example 45] | ≥ 10 nM |
| Cn1nccc1-c1cc(-c2cnc3c(=O)n(C)ccc3c2)nc2sc([S+]([O-])C3CCC3)c(N)c12 (centres unmarked) [Example 216] | < 2.5 nM |
| COCC[S@@+]([O-])c1sc2nc(-c3cc(=O)n(C)cn3)cc(-c3ccccc3)c2c1N [Example 220] | < 2.5 nM |
| COCCC[S+]([O-])c1sc2nc(-c3cncnc3)cc(-c3cccnn3)c2c1N (centres unmarked) [Example 236] | < 2.5 nM |
| Cn1nccc1-c1cc(-c2cnc(NCCO)nc2)nc2sc([S@+]([O-])C3CCC3)c(N)c12 [Example 313] | < 2.5 nM |
| COCCC[S+]([O-])c1sc2nc(-c3cnc(N)nc3)cc(C3CC3)c2c1N (centres unmarked) [Example 107] | < 2.5 nM |
| COCCC[S+]([O-])c1sc2nc(-c3cnc4nn(CCO)cc4c3)cc(C3CCC3)c2c1N (centres unmarked) [Example 270] | < 2.5 nM |
| COC(=O)Nc1ncc(-c2cc(-c3cccnc3)c3c(N)c([S+]([O-])C4CCC4)sc3n2)cn1 (centres unmarked) [Example 117] | 2.5 to 10 nM |
| Nc1c([S+]([O-])C2CCC2)sc2nc(-c3cncnc3)cc(-c3cc[nH]n3)c12 (centres unmarked) [Example 307] | < 2.5 nM |
| Nc1c([S+]([O-])C2CCC2)sc2nc(-c3cnc(NCCO)nc3)nc(-c3ccccc3)c12 (centres unmarked) [Example 431] | 2.5 to 10 nM |
| Cn1nccc1-c1cc(-c2cnn3ccnc3c2)nc2sc([S+]([O-])C3CCC3)c(N)c12 (centres unmarked) [Example 319] | < 2.5 nM |
| COCC[S@@+]([O-])c1sc2nc(-c3ccnnc3)cc(-c3ccccc3)c2c1N [Example 211] | < 2.5 nM |
| Cn1nccc1-c1cc(-c2cnc(NCCO)nc2)nc2sc([S+]([O-])C3CCC3)c(N)c12 (centres unmarked) [Example 312] | < 2.5 nM |
| Nc1c([S+]([O-])C2CCC2)sc2nc(-c3cnc(NCCO)nc3)cc(-c3cccc(C(F)(F)F)c3)c12 (centres unmarked) [Example 168] | 2.5 to 10 nM |
| Cn1ccc(-c2cc(-c3ccnnc3)nc3sc([S+]([O-])C4CCC4)c(N)c23)n1 (centres unmarked) [Example 213] | < 2.5 nM |
